According to PMC8480901 (PLoS ONE, 2021):
Several values for one entry are separate records, joined by “and”; a condition that tells them apart may be missing. Equal entries are not always repeated. Entries after “also recorded” stand apart in the source; their conditions may differ.

Legend:
[1] = test system: LPS-induced lung neutrophilia; assay: LPS-induced lung neutrophilia: total and neutrophil cell counts in BALF; type: in vivo, BALB/c mice; details: for Neutrophils in BALF: % reduction / Total cells/white blood cells in BALF: % reduction / Neutrophils in BALF, Mean / Total cells/white blood cells in BALF, Mean / Neutrophils in BALF, individual mice / Total cells/white blood cells in BALF, individual mice: LPS; for Neutrophils in BALF, Mean / Total cells/white blood cells in BALF, Mean / Neutrophils in BALF, individual mice / Total cells/white blood cells in BALF, individual mice: BALF 4 h after LPS; for Neutrophils in BALF, individual mice / Total cells/white blood cells in BALF, individual mice: listed as Lef
Procedure: Six-week-old male BALB/c mice (Charles River, Calco, Italy) were singly housed in a temperature-controlled (22°C±2°C) environment with a 12:12-hour light:dark cycle and free access to food and water. Mice were given ≥7 days for acclimation before all procedures. […] One day before the start of experimental procedures, all animals were randomized into 6 groups (n = 8/group). Animal group assignment was not blinded.
LPS lyophilized powder (2 mg; Sigma-Aldrich Chemie GmbH, Munich, Germany) from Escherichia coli (O111:B4) was dissolved in 10 mL cold saline (0.9%; Pliva, Zagreb, Croatia), vortexed, and further diluted by mixing 2 mL of this solution with 2 mL saline to reach a final concentration of 5 μg LPS/50 μL saline. […] Ketamine hydrochloride (Narketan 10) was acquired from Vetoquinol (Bern, Switzerland), and xylazine hydrochloride (Rompun, 2%) was acquired from Bayer (Leverkusen, Germany).
To induce pulmonary neutrophilia, mice in the control group received intranasal (IN) 50 μL saline, and all other animals received 5 μg LPS/50 μL saline IN per mouse.
Tracheostomy was performed, and a Buster cat catheter (1.0 × 130 mm; Kruuse, Langeskov, Denmark), shortened to 3 cm, was clamped into the trachea. The lungs were washed 3 times with cold phosphate-buffered saline (PBS; Sigma-Aldrich Chemie GmbH) in a total volume of 1 mL (0.4, 0.3, and 0.3 mL). The collected BALF samples were centrifuged (1303×g, 5 min, 4°C), and resulting cell pellets were each resuspended in 600 μL PBS. Samples were immediately analyzed for total and differential neutrophil cell counts via automated hematology analyzer (XT-2000iV; Sysmex, Kobe, Japan).
Differences between treated versus vehicle groups were determined using the Mann-Whitney test and were considered statistically significant when P<0.05. Outliers in the analysis of cytokine and chemokine concentrations were identified using the Grubbs test. No criteria were set for inclusion/exclusion of animals during the experiment or data points during the analysis.

J774.2 mouse macrophages = assay: Cytotoxicity in J774.2 mouse macrophages (adenylate kinase release, ToxiLight); type: cell-based; details: for cell viability: J774.2 cells; for fold-change of adenylate kinase release at test concentration vs vehicle control, Mean ± SEM: J774.2 mouse macrophages, n=2
Procedure: The effect of t est compounds on cell viabilit y of J 774.2 macrophages and human PBMCs […]
was determined b y comp aring th e aden yl ate kinas e signal obtain ed in the p resence of diff er ent concentrations of compounds with those obtained in DMSO (vehicle) control. Signals were […]
divided,and the results were ex pressed as fold-change versus v ehicle con trol .

[2] = test system: TNF-α, IL-6, IL-1β, GM-CSF, CXCL-1, CXCL-2, CCL-2 and MMP-9 in lung tissue; assay: LPS-induced cytokines, chemokines and MMP-9 in mouse lung homogenates (Luminex, ELISA)
Procedure: After bronchoalveolar lavage, lungs were removed, weighed, snap frozen, and stored at −80°C until analysis. To homogenize the tissue, the frozen lungs were thawed and placed in Precellys CK28 Hard Tissue tubes (BERTIN Instruments, Montigny-le-Bretonneux, France) in 1 mL PBS (Gibco, Life Technologies, Paisley, UK) supplemented with protease inhibitors (Halt™ Protease Inhibitor Cocktail [100×]; Thermo Fisher Scientific, Rockford, IL, USA). A Precellys homogenizer (BERTIN Instruments) was used, shaking at 6800 rpm for three 30-second pulses separated by 15-second pauses. After homogenization, samples were centrifuged at 18,000×g for 10 minutes at 4°C, and the supernatants were collected for analysis.
Concentrations of tumor necrosis factor (TNF)-α, IL-6, granulocyte-macrophage colony-stimulating factor (GM-CSF), chemokine (C-X-C motif) ligand (CXCL)-1, CXCL-2, and chemokine (C-C motif) ligand (CCL)-2 in mouse lung homogenates were analyzed with the Mouse Premixed Multi-Analyte Kit (R&D Systems, Minneapolis, MN, USA) per the manufacturer’s protocol and using a Luminex 200 System (Luminex Corporation, Austin, TX, USA). Cytokine and chemokine concentrations were determined from blank-corrected median fluorescence intensity of each sample via xPONENT® software (Luminex Corporation), interpolating from standard curves generated with a 5-parameter logistic curve-fit.
Mouse Total MMP (matrix metalloprotease)-9 and IL-1β/IL-1F2 DuoSet ELISA (enzyme-linked immunosorbent assay) kits (R&D Systems) were used to measure concentrations of MMP-9 and IL-1β, respectively, in lung homogenates per the manufacturer’s protocols. Absorbance at 450 nm was measured using the SpectraMax i3 (Molecular Devices, San Jose, CA, USA). Concentrations of MMP-9 and IL-1β in samples were determined by interpolation from standard curves.

[3] = Experiment 1, 10 mg/kg SC, 10 mg/kg
[4] = Experiment 1, 30 mg/kg SC, 30 mg/kg
[5] = Experiment 1, 100 mg/kg SC, 100 mg/kg
[6] = Experiment 2, 35 mg/kg SC, 35 mg/kg
[7] = Experiment 2, 70 mg/kg SC, 70 mg/kg
[8] = Experiment 2, 140 mg/kg SC, 140 mg/kg
[9] = all doses (10, 30, 100 mg/kg SC)
[10] = all doses tested (10, 30, 100 mg/kg SC), vs vehicle control

C=C[C@]1(C)C[C@@H](OC(=O)CS[C@@H]2CC[C@@H](N)C[C@H]2O)[C@]2(C)[C@H](C)CC[C@]3(CCC(=O)[C@H]32)[C@@H](C)[C@@H]1O [Lefamulin]
total cell and neutrophil recruitment to the lungs (measured in BALF) ([1]; 10, 30, and 100 mg/kg SC 30 min before intranasal LPS, 4 hours postchallenge, vs vehicle control): dose-dependent reduction; also recorded: almost complete reduction | Neutrophils in BALF: % reduction ([1]; Experiment 1, 10 mg/kg SC): 37% | Total cells/white blood cells in BALF: % reduction ([1]; Experiment 1, 10 mg/kg SC): 50% | Neutrophils in BALF, Mean ([1]; Experiment 1, 10 mg/kg SC): 3.3e+08 L⁻¹ | Total cells/white blood cells in BALF, Mean ([1]; Experiment 1, 10 mg/kg SC): 5e+08 L⁻¹ | Neutrophils in BALF, individual mice [1, 3]: 4.7e+08 L⁻¹ and 2.2e+08 L⁻¹ and 1.9e+08 L⁻¹ and 3.7e+08 L⁻¹ and 3.1e+08 L⁻¹ and 1e+08 L⁻¹ and 4.5e+08 L⁻¹ and 4.9e+08 L⁻¹ | Total cells/white blood cells in BALF, individual mice [1, 3]: 6.6e+08 L⁻¹ and 5.9e+08 L⁻¹ and 6.1e+08 L⁻¹ and 3e+08 L⁻¹ and 5.1e+08 L⁻¹ and 6.3e+08 L⁻¹ and 5e+08 L⁻¹ and 1.7e+08 L⁻¹ | Neutrophils in BALF: % reduction ([1]; Experiment 1, 30 mg/kg SC): 59% | Total cells/white blood cells in BALF: % reduction ([1]; Experiment 1, 30 mg/kg SC): 78% | Neutrophils in BALF, Mean ([1]; Experiment 1, 30 mg/kg SC): 2.2e+08 L⁻¹ | Total cells/white blood cells in BALF, Mean ([1]; Experiment 1, 30 mg/kg SC): 4.2e+08 L⁻¹ | Neutrophils in BALF, individual mice [1, 4]: 2.1e+08 L⁻¹ and 3.8e+08 L⁻¹ and 1.2e+08 L⁻¹ and 2.5e+08 L⁻¹ and 1.7e+08 L⁻¹ and 2.3e+08 L⁻¹ and 1.6e+08 L⁻¹ | Total cells/white blood cells in BALF, individual mice [1, 4]: 2.7e+08 L⁻¹ and 3.7e+08 L⁻¹ and 3.5e+08 L⁻¹ and 6.6e+08 L⁻¹ and 2.6e+08 L⁻¹ and 3.9e+08 L⁻¹ and 3.8e+08 L⁻¹ | Neutrophils in BALF: % reduction ([1]; Experiment 1, 100 mg/kg SC): 70% | Total cells/white blood cells in BALF: % reduction ([1]; Experiment 1, 100 mg/kg SC): 100% | Neutrophils in BALF, Mean ([1]; Experiment 1, 100 mg/kg SC): 1.6e+08 L⁻¹ | Total cells/white blood cells in BALF, Mean ([1]; Experiment 1, 100 mg/kg SC): 3.5e+08 L⁻¹ | Neutrophils in BALF, individual mice [1, 5]: 1.4e+08 L⁻¹ and 1.8e+08 L⁻¹ and 1.2e+08 L⁻¹ and 1.3e+08 L⁻¹ and 2.8e+08 L⁻¹ and 1.7e+08 L⁻¹ | Total cells/white blood cells in BALF, individual mice [1, 5]: 3.3e+08 L⁻¹ and 2.4e+08 L⁻¹ and 3.1e+08 L⁻¹ and 3.4e+08 L⁻¹ and 2.3e+08 L⁻¹ and 3.9e+08 L⁻¹ and 6.6e+08 L⁻¹ | Neutrophils in BALF: % reduction ([1]; Experiment 2, 35 mg/kg SC): 64% | Total cells/white blood cells in BALF: % reduction ([1]; Experiment 2, 35 mg/kg SC): 69% | Neutrophils in BALF, Mean ([1]; Experiment 2, 35 mg/kg SC): 2.2e+08 L⁻¹ | Total cells/white blood cells in BALF, Mean ([1]; Experiment 2, 35 mg/kg SC): 5.5e+08 L⁻¹ | Neutrophils in BALF, individual mice [1, 6]: 2e+08 L⁻¹ and 1.6e+08 L⁻¹ and 2.4e+08 L⁻¹ and 2.2e+08 L⁻¹ and 3.4e+08 L⁻¹ and 1.9e+08 L⁻¹ and 3.1e+08 L⁻¹ and 1.2e+08 L⁻¹ | Total cells/white blood cells in BALF, individual mice [1, 6]: 9.1e+08 L⁻¹ and 2e+08 L⁻¹ and 7e+08 L⁻¹ and 4.4e+08 L⁻¹ and 4.6e+08 L⁻¹ and 3.7e+08 L⁻¹ and 7.3e+08 L⁻¹ and 5.5e+08 L⁻¹ | Neutrophils in BALF: % reduction ([1]; Experiment 2, 70 mg/kg SC): 77% | Total cells/white blood cells in BALF: % reduction ([1]; Experiment 2, 70 mg/kg SC): 91% | Neutrophils in BALF, Mean ([1]; Experiment 2, 70 mg/kg SC): 1.5e+08 L⁻¹ | Total cells/white blood cells in BALF, Mean ([1]; Experiment 2, 70 mg/kg SC): 4.3e+08 L⁻¹ | Neutrophils in BALF, individual mice [1, 7]: 1.8e+08 L⁻¹ and 1.7e+08 L⁻¹ and 1.1e+08 L⁻¹ and 1e+08 L⁻¹ and 2.1e+08 L⁻¹ and 1.2e+08 L⁻¹ and 9e+07 L⁻¹ | Total cells/white blood cells in BALF, individual mice [1, 7]: 4.6e+08 L⁻¹ and 2.1e+08 L⁻¹ and 4.3e+08 L⁻¹ and 4.4e+08 L⁻¹ and 3.3e+08 L⁻¹ and 3e+08 L⁻¹ and 5.8e+08 L⁻¹ and 6.7e+08 L⁻¹ | Neutrophils in BALF: % reduction ([1]; Experiment 2, 140 mg/kg SC): 77% | Total cells/white blood cells in BALF: % reduction ([1]; Experiment 2, 140 mg/kg SC): 107% | Neutrophils in BALF, Mean ([1]; Experiment 2, 140 mg/kg SC): 1.5e+08 L⁻¹ | Total cells/white blood cells in BALF, Mean ([1]; Experiment 2, 140 mg/kg SC): 3.4e+08 L⁻¹ | Neutrophils in BALF, individual mice [1, 8]: 1.6e+08 L⁻¹ and 1.4e+08 L⁻¹ and 1.2e+08 L⁻¹ and 1.7e+08 L⁻¹ and 9e+07 L⁻¹ and 2e+08 L⁻¹ | Total cells/white blood cells in BALF, individual mice [1, 8]: 4.6e+08 L⁻¹ and 3.9e+08 L⁻¹ and 2.6e+08 L⁻¹ and 2.9e+08 L⁻¹ and 3.6e+08 L⁻¹ and 3.3e+08 L⁻¹ and 4.4e+08 L⁻¹ and 2e+08 L⁻¹ | cell viability (J774.2 mouse macrophages; 30 μM): reduced | cell viability (J774.2 mouse macrophages; 100 μM): reduced | fold-change of adenylate kinase release at test concentration vs vehicle control, Mean ± SEM (J774.2 mouse macrophages; 0.03 µM): 1.33 ± 0.11 fold-change | fold-change of adenylate kinase release at test concentration vs vehicle control, Mean ± SEM (J774.2 mouse macrophages; 0.1 µM): 1.27 ± 0.23 fold-change | fold-change of adenylate kinase release at test concentration vs vehicle control, Mean ± SEM (J774.2 mouse macrophages; 0.3 µM): 1.10 ± 0.16 fold-change | fold-change of adenylate kinase release at test concentration vs vehicle control, Mean ± SEM (J774.2 mouse macrophages; 1 µM): 0.89 ± 0.08 fold-change | fold-change of adenylate kinase release at test concentration vs vehicle control, Mean ± SEM (J774.2 mouse macrophages; 3 µM): 1.12 ± 0.18 fold-change | fold-change of adenylate kinase release at test concentration vs vehicle control, Mean ± SEM (J774.2 mouse macrophages; 10 µM): 1.26 ± 0.27 fold-change | fold-change of adenylate kinase release at test concentration vs vehicle control, Mean ± SEM (J774.2 mouse macrophages; 30 µM): 2.00 ± 0.13 fold-change | fold-change of adenylate kinase release at test concentration vs vehicle control, Mean ± SEM (J774.2 mouse macrophages; 100 µM): 6.18 ± 0.05 fold-change | levels of all cytokines and chemokines assessed, as well as of MMP-9, in lung homogenate ([2]; 10, 30, and 100 mg/kg SC, vs vehicle): significantly reduced | MMP-9 levels in lung homogenate ([2]; 30 and 100 mg/kg SC): Significant reductions | IL-1β concentrations in lung homogenate [2, 9]: dose-dependent effect | chemokines and GM-CSF in lung homogenate [2, 9]: Significant reductions | IL-6 concentrations in lung homogenate [2, 10]: significantly reduced | TNF-α concentrations in lung homogenate [2, 10]: significantly reduced | IL-1β concentrations in lung homogenate ([2]; highest dose, 100 mg/kg SC): significant inhibition | CCL2 % reduction ([2]; lung homogenate, LPS, 10 mg/kg): 93% | CXCL1 % reduction ([2]; lung homogenate, LPS, 10 mg/kg): 62% | CXCL2 % reduction ([2]; lung homogenate, LPS, 10 mg/kg): 73% | GM-CSF % reduction ([2]; lung homogenate, LPS, 10 mg/kg): 85% | IL-1β % reduction ([2]; lung homogenate, LPS, 10 mg/kg): -19% | IL-6 % reduction ([2]; lung homogenate, LPS, 10 mg/kg): 106% | MMP9 % reduction ([2]; lung homogenate, LPS, 10 mg/kg): 8% | TNFα % reduction ([2]; lung homogenate, LPS, 10 mg/kg): 79% | CCL2 ([2]; lung homogenate, LPS, 10 mg/kg, individual animal, listed as Lef): 1377.65 pg/mL and 537.39 pg/mL and 646.70 pg/mL and 438.83 pg/mL and 518.31 pg/mL and 1456.64 pg/mL and 908.74 pg/mL and 229.87 pg/mL
